# Measurements: patent publication US20230220331A1, “TEMPORARY TREATMENT MEDIUM, TREATMENT KIT, EMBRYOGENESIS ARREST INHIBITOR, EMBRYOGENESIS ARREST INHIBITORY METHOD, DEVELOPMENTAL ENGINEERING PRODUCT PREPARATION METHOD, TRANSPLANTATION METHOD, THERAPEUTIC METHOD, AND DEVELOPMENTAL ENGINEERING PRODUCT” (priority 2020, published 2023)
# System: frozen embryos of C57BL/6J
# Assay: Recovery of re-frozen and re-thawed blastocysts, cytochalasin B vs Y-27632 (Treatment Example 10)
# Format: cell-based, mouse
# Conditions: for RECOVERY RATE about 3 hours later / RECOVERY RATE about 24 hours later / RECOVERY RATE immediately after thawing / number of embryos ABOUT 3 HOURS LATER / number of embryos ABOUT 24 HOURS LATER / number of embryos IMMEDIATELY AFTER THAWING: 19 embryos
# Description: In this treatment example, as in the above-mentioned treatment example 9, the normal medium (hereinafter, referred to as “Y− medium” as in the treatment example 9), the temporary treatment medium to which Y-27632 is added (hereinafter, referred to as “Y+ medium” as in the treatment example 9), and a CB-added medium (hereinafter, referred to as “CB+ medium”) were used. The concentrations of CB in the CB+ medium were 5 μM and 10 μM are prepared. As the manipulation, the recovery rates when frozen embryos were thawed and developed, then re-frozen in blastocysts and re-thawed were compared.
# For the treatment, 107 frozen embryos of C57BL/6J (provided from CLEA Japan, Inc.) at the 2-cell stage were used. Firstly, the frozen embryos at the 2-cell stage were thawed and blastocysts were developed as they were in a normal medium.
# Then, the blastocysts were then transferred to each of the above media and placed for 30 minutes. Then, the embryos were transferred to Y− medium again and placed for 30 minutes.
# Then, each embryo was frozen.
# Then, the embryos were then thawed and placed in M2 medium for 10 minutes.
# Then, each embryo was evenly divided and placed on the medium for 1 hour.
# The embryos were observed by returning to the Y− medium again. This observation was performed immediately after thawing, 3 hours later, and 24 hours later.
structure (smiles),measurement,setting,value
"C=C1[C@@H](C)[C@H]2[C@H](Cc3ccccc3)NC(=O)[C@]23OC(=O)/C=C/[C@H](O)CCC[C@@H](C)C/C=C/[C@H]3[C@@H]1O [CB+ mWM, 2H-Oxacyclotetradecino[2,3-d]isoindole-2,18(5H)-dione, 6,7,8,9,10,12a,13,14,15,15a,16,17-dodecahydro-5,13-dihydroxy-9,15-dimethyl-14-methyl ene-16-(phenylmethyl)-, (3E,5R,9R,11E,12aS,13S,15S,15aS,16S,18aS)-]",RECOVERY RATE about 3 hours later,5 μM in mWM,94%
same,RECOVERY RATE about 24 hours later,5 μM in mWM,78%
same,RECOVERY RATE immediately after thawing,5 μM in mWM,26%
same,number of embryos ABOUT 3 HOURS LATER,5 μM in mWM,18
same,number of embryos ABOUT 24 HOURS LATER,5 μM in mWM,15
same,number of embryos IMMEDIATELY AFTER THAWING,5 μM in mWM,5
same,RECOVERY RATE about 3 hours later,10 μM in mWM,52%
same,RECOVERY RATE about 24 hours later,10 μM in mWM,63%
same,RECOVERY RATE immediately after thawing,10 μM in mWM,10%
same,number of embryos ABOUT 3 HOURS LATER,10 μM in mWM,10
same,number of embryos ABOUT 24 HOURS LATER,10 μM in mWM,12
same,number of embryos IMMEDIATELY AFTER THAWING,10 μM in mWM,2
same,recovery rate of 5 μM higher than that of 10 μM,after 24 hours,15%
